The text below walks through data of US20200071310A1, “N-ARYL PYRAZOLES AS NRF2 REGULATORS” (GLAXOSMITHKLINE INTELLECTUAL PROPERTY DEVELOPMENT LIMITED, priority 2016, published 2020).

Structures are written as SMILES.

Test [1] addresses T1, Keap1 (321-609) Kelch domain / TAMRA-labeled NRF2 peptide (ETGE motif) (Homo sapiens, UniProt Q14145).
T1 construct: the Kelch domain (321-609) of Keap1 is used
The test is described as follows: NRF2-Keap1 FP Assay. It counts as binding. The conditions noted are these: Keap1 (321-609) 20 nM, Tamra labeled peptide 8 nM. Put shortly: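 Fluorescence polarization competition: 20 nM Keap1 Kelch (321-609) with 8 nM TAMRA-ETGE 16mer peptide (final) in Tris pH 8.0 buffer with DTT, CHAPS, BSA; 3-fold compound series, 1 h at room temperature. mP normalized to protein+peptide (0%) and peptide-only (100%) controls; pIC50 from four-parameter fit.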

The test system of test [2] is NQO1 specific enzyme activity in BEAS-2B cells. The test is described as follows: BEAS-2B NQO1 MTT Assay. It counts as cell-based. The conditions noted are these: Homo sapiens; NQO1 specific activity induction, BEAS-2B cells, 48 hours; read-out: EC50. Put shortly:
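BEAS-2B cells plated overnight, treated with compound for 48 h at 37° C, then lysed; NQO1 activity measured kinetically by MTT cocktail at 570 nm over 30 min, with lysate aliquot for Cell Titer Glo. pEC50 from 3-parameter fit of ΔOD/min versus log concentration.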

T1 sequence (Q14145 321-609): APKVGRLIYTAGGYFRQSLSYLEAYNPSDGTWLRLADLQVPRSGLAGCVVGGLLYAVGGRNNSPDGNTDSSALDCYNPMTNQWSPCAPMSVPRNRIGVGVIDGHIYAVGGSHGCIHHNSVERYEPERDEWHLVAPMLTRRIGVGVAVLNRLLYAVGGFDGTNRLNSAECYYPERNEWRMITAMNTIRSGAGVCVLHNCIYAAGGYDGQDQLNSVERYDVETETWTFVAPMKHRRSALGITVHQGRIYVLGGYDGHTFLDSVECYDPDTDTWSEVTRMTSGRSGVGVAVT

As for `CCCCCCN(Cc1cccc(-n2ncc(C(=O)O)c2[C@@H]2C[C@H]2c2cn(C)nn2)c1)S(=O)(=O)c1ccccc1Oc1ccccc1` (racemic) [Example 49, 1-(3-((N-hexyl-2-phenoxyphenylsulfonamido)methyl)phenyl)-5-((trans)-2-(1-methyl-1H-1,2,3-triazol-4-yl)cyclopropyl)-1H-pyrazole-4-carboxylic acid], the EC50 in test [1] and in test [2] was 100 to 1000 nM each time.
As for `CC[C@@H]1CN(Cc2cccc(-n3ncc(C(=O)O)c3[C@@H]3C[C@H]3c3cnn(C)c3)c2)S(=O)(=O)c2ccccc2O1` [Example 31, 1-(3-(((R)-4-ethyl-1,1-dioxido-3,4-dihydro-2H-benzo[b][1,4,5]oxathiazepin-2-yl)methyl)-phenyl)-5-(trans-2-(1-methyl-1H-pyrazol-4-yl)cyclopropyl)-1H-pyrazole-4-carboxylic acid], the EC50 in test [1] lay within 100 to 1000 nM; in test [2] it was 1000 to 10000 nM.
In the case of `C[C@@H]1Cc2cc(C(F)(F)F)ccc2S(=O)(=O)N(Cc2cccc(-n3ncc(C(=O)O)c3[C@@H]3C[C@H]3c3cnn(C)c3)c2)C1` [Example 33, 1-(3-(((R)-4-methyl-1,1-dioxido-7-(trifluoromethyl)-4,5-dihydro-benzo[f][1,2]thiazepin-2(3H)-yl)methyl)phenyl)-5-(trans-2-(1-methyl-1H-pyrazol-4-yl)cyclopropyl)-1H-pyrazole-4-carboxylic acid], the EC50 in test [1] and in test [2] was 1000 to 10000 nM in each case.

By EC50 is commonly meant the concentration at which the effect is half-maximal.
